Results from US20100190846A1, “MICROBICIDAL AGENT AND MICROBICIDAL COMPOSITION” (priority 2006, published 2010).
Values after ≈ are worked out from the molar mass of the structure shown.

Experiments:
Assay in all cases: Agar dilution method microbicidal test
Type in all cases: cell-based
Bacillus cereus = tested on: Bacillus cereus; further: key: +: grew; −: did not grow
Description: (§1) As microbicidal test method for trans-p-coumaric acid, 3-hydroxypyridine, p-hydroxybenzaldehyde and vanillin, the agar dilution method was employed.
(§2) In agar dilution method, a solution in which a sample is dissolved is serially diluted several times, and each of the diluted sample solutions is mixed with agar medium to prepare plate agars having various sample concentration. Then bacteria is inoculated onto the plate agars. In cases where the sample has a microbicidal activity, the growth of the bacteria on the plates can be inhibited. The lowest concentration which can inhibit the growth of the bacteria is referred to as Minimum Inhibitory Concentration (MIC), thereby judging the degree of a microbicidal activity of the sample.
(§3) First, 400 mg of sample was dissolved in 1 mL of DMSO to prepare 400 mg/mL sample solution. Then 0.5 mL of this 400 mg/mL sample solution was diluted 2-fold to prepare 200 mg/mL sample solution. In the same manner, sample solutions of 100 mg/mL, 50.0 mg/mL, and 25.0 mg/mL were prepared. In addition, 300 mg/mL sample solution was prepared. Thereafter, 0.2 mL of these sample solutions each was mixed with 19.8 mL of BHI (Brain Heart Infusion Agar, Becton Dickinson, MD) medium, thereby preparing agar plates having the sample concentration of 4.0 mg/mL, 3.0 mg/mL, 2.0 mg/mL, 1.0 mg/mL, 0.5 mg/mL, and 0.25 mg/mL in dishes. […] Sterilized water was used for dissolving catechin, because catechin was insoluble in DMSO.
(§4) As test bacteria, 13 kinds of bacteria, i.e., Streptococcus pneumoniae, Streptococcus pyogenes, Enterococcus faecalis, Staphylococcus aureus, Escherichia coli, Salmonella sp., Yersinia enterocolitica, Vibrio parahaemolyticus, Pseudomonas aeruginosa, Bacillus cereus, Bacillus subtilis MB-32, Bacillus subtilis ATCC6633, and Candida sp., were used. These bacteria each was mixed with 2 mL of sterilized MHB^R liquid medium (Mueller Hinton Broth^R, Becton Dickinson, MD) to prepare bacterial suspension having turbidity 1 (bacterial concentration 10^8/mL). Previously, small test tubes were set into each cell of a grating and sterilized, and 1 mL of 13 bacterial suspensions were added into the small test tubes set in the grating, respectively. By using a microplanter (SAKUMA, model: MIT-P), 10 μL aliquot was collected from each test tube set in the grating and transferred to other test tube, and the transferred bacterial suspensions were diluted 100-fold (bacterial concentration 10^6/mL).
(§5) By using the microplanter, 10 μL (bacterial number […]) of this bacterial suspension was inoculated onto the plates containing the sample solution of various concentrations. The plates were incubated for 18 hours in an incubator at 37° C., and then a microbicidal activity of each compound was assessed.

[1] = tested on: Bacillus subtilis ATCC6633; conditions: Bacillus subtilis ATCC 6633; further: key: +: grew; −: did not grow
Description: as §1, §2, §3, §4, §5

Bacillus subtilis MB-32 = tested on: Bacillus subtilis MB-32; further: key: +: grew; −: did not grow
Description: as §1, §2, §3, §4, §5

Candida sp. = tested on: Candida sp. On Growth on agar plate: key: +: grew; −: did not grow.
Description: as §1, §2, §3, §4, §5

Enterococcus faecalis = tested on: Enterococcus faecalis; further: key: +: grew; −: did not grow
Description: as §1, §2, §3, §4, §5

Escherichia coli = tested on: Escherichia coli; further: key: +: grew; −: did not grow
Description: as §1, §2, §3, §4, §5

Pseudomonas aeruginosa = tested on: Pseudomonas aeruginosa; on Growth on agar plate: key: +: grew; −: did not grow
Description: as §1, §2, §3, §4, §5

Salmonella sp. = tested on: Salmonella sp. Further: key: +: grew; −: did not grow.
Description: as §1, §2, §3, §4, §5

Staphylococcus aureus = tested on: Staphylococcus aureus; on Growth on agar plate: key: +: grew; −: did not grow
Description: as §1, §2, §3, §4, §5

Streptococcus pneumoniae = tested on: Streptococcus pneumoniae; on Growth on agar plate: key: +: grew; −: did not grow
Description: as §1, §2, §3, §4, §5

Streptococcus pyogenes = tested on: Streptococcus pyogenes; on Growth on agar plate: key: +: grew; −: did not grow
Description: as §1, §2, §3, §4, §5

Vibrio parahaemolyticus = tested on: Vibrio parahaemolyticus; on Growth on agar plate: key: +: grew; −: did not grow
Description: as §1, §2, §3, §4, §5

Yersinia enterocolitica = tested on: Yersinia enterocolitica; on Growth on agar plate: key: +: grew; −: did not grow
Description: as §1, §2, §3, §4, §5

[2] = BHI agar, 37° C., 18 hours, read-out: MIC

SMILES: Oc1cccnc1 [3-Hydroxypyridine, 3-hydroxypyridine]
- Growth on agar plate (Bacillus cereus; 0.25 mg/mL): +
- Growth on agar plate (Bacillus cereus; 0.5 mg/mL): +
- Growth on agar plate (Bacillus cereus; 1.0 mg/mL): +
- Growth on agar plate (Bacillus cereus; 2.0 mg/mL): +
- Growth on agar plate (Bacillus cereus; 3.0 mg/mL): +
- Growth on agar plate (Bacillus cereus; 4.0 mg/mL): +
- Growth on agar plate ([1]; 0.25 mg/mL): +
- Growth on agar plate ([1]; 0.5 mg/mL): +
- Growth on agar plate ([1]; 1.0 mg/mL): +
- Growth on agar plate ([1]; 2.0 mg/mL): +
- Growth on agar plate ([1]; 3.0 mg/mL): +
- Growth on agar plate ([1]; 4.0 mg/mL): +
- Growth on agar plate (Bacillus subtilis MB-32; 0.25 mg/mL): +
- Growth on agar plate (Bacillus subtilis MB-32; 0.5 mg/mL): +
- Growth on agar plate (Bacillus subtilis MB-32; 1.0 mg/mL): +
- Growth on agar plate (Bacillus subtilis MB-32; 2.0 mg/mL): +
- Growth on agar plate (Bacillus subtilis MB-32; 3.0 mg/mL): +
- Growth on agar plate (Bacillus subtilis MB-32; 4.0 mg/mL): +
- activity (in words) (Candida sp.): had an activity
- Growth on agar plate (Candida sp.; 0.25 mg/mL): +
- Growth on agar plate (Candida sp.; 0.5 mg/mL): +
- Growth on agar plate (Candida sp.; 1.0 mg/mL): +
- Growth on agar plate (Candida sp.; 2.0 mg/mL): +
- Growth on agar plate (Candida sp.; 3.0 mg/mL): +
- Growth on agar plate (Candida sp.; 4.0 mg/mL): −
- MIC (Candida sp.; [2]): 4000 µg/mL (≈ 42.1 mM)
- Growth on agar plate (Enterococcus faecalis; 0.25 mg/mL): +
- Growth on agar plate (Enterococcus faecalis; 0.5 mg/mL): +
- Growth on agar plate (Enterococcus faecalis; 1.0 mg/mL): +
- Growth on agar plate (Enterococcus faecalis; 2.0 mg/mL): +
- Growth on agar plate (Enterococcus faecalis; 3.0 mg/mL): +
- Growth on agar plate (Enterococcus faecalis; 4.0 mg/mL): +
- Growth on agar plate (Escherichia coli; 0.25 mg/mL): +
- Growth on agar plate (Escherichia coli; 0.5 mg/mL): +
- Growth on agar plate (Escherichia coli; 1.0 mg/mL): +
- Growth on agar plate (Escherichia coli; 2.0 mg/mL): +
- Growth on agar plate (Escherichia coli; 3.0 mg/mL): +
- Growth on agar plate (Escherichia coli; 4.0 mg/mL): +
- activity (in words) (Pseudomonas aeruginosa): had an activity
- Growth on agar plate (Pseudomonas aeruginosa; 0.25 mg/mL): +
- Growth on agar plate (Pseudomonas aeruginosa; 0.5 mg/mL): +
- Growth on agar plate (Pseudomonas aeruginosa; 1.0 mg/mL): +
- Growth on agar plate (Pseudomonas aeruginosa; 2.0 mg/mL): +
- Growth on agar plate (Pseudomonas aeruginosa; 3.0 mg/mL): +
- Growth on agar plate (Pseudomonas aeruginosa; 4.0 mg/mL): −
- MIC (Pseudomonas aeruginosa; [2]): 4000 µg/mL (≈ 42.1 mM)
- Growth on agar plate (Salmonella sp.; 0.25 mg/mL): +
- Growth on agar plate (Salmonella sp.; 0.5 mg/mL): +
- Growth on agar plate (Salmonella sp.; 1.0 mg/mL): +
- Growth on agar plate (Salmonella sp.; 2.0 mg/mL): +
- Growth on agar plate (Salmonella sp.; 3.0 mg/mL): +
- Growth on agar plate (Salmonella sp.; 4.0 mg/mL): +
- activity (in words) (Staphylococcus aureus): had an activity
- Growth on agar plate (Staphylococcus aureus; 0.25 mg/mL): +
- Growth on agar plate (Staphylococcus aureus; 0.5 mg/mL): +
- Growth on agar plate (Staphylococcus aureus; 1.0 mg/mL): +
- Growth on agar plate (Staphylococcus aureus; 2.0 mg/mL): +
- Growth on agar plate (Staphylococcus aureus; 3.0 mg/mL): +
- Growth on agar plate (Staphylococcus aureus; 4.0 mg/mL): −
- MIC (Staphylococcus aureus; [2]): 4000 µg/mL (≈ 42.1 mM)
- activity (in words) (Streptococcus pneumoniae): had an activity
- Growth on agar plate (Streptococcus pneumoniae; 0.25 mg/mL): +
- Growth on agar plate (Streptococcus pneumoniae; 0.5 mg/mL): +
- Growth on agar plate (Streptococcus pneumoniae; 1.0 mg/mL): +
- Growth on agar plate (Streptococcus pneumoniae; 2.0 mg/mL): +
- Growth on agar plate (Streptococcus pneumoniae; 3.0 mg/mL): +
- Growth on agar plate (Streptococcus pneumoniae; 4.0 mg/mL): −
- MIC (Streptococcus pneumoniae; [2]): 4000 µg/mL (≈ 42.1 mM)
- activity (in words) (Streptococcus pyogenes): had an activity
- Growth on agar plate (Streptococcus pyogenes; 0.25 mg/mL): +
- Growth on agar plate (Streptococcus pyogenes; 0.5 mg/mL): +
- Growth on agar plate (Streptococcus pyogenes; 1.0 mg/mL): +
- Growth on agar plate (Streptococcus pyogenes; 2.0 mg/mL): +
- Growth on agar plate (Streptococcus pyogenes; 3.0 mg/mL): +
- Growth on agar plate (Streptococcus pyogenes; 4.0 mg/mL): −
- MIC (Streptococcus pyogenes; [2]): 4000 µg/mL (≈ 42.1 mM)
- Growth on agar plate (Vibrio parahaemolyticus; 0.25 mg/mL): +
- Growth on agar plate (Vibrio parahaemolyticus; 0.5 mg/mL): +
- Growth on agar plate (Vibrio parahaemolyticus; 1.0 mg/mL): +
- Growth on agar plate (Vibrio parahaemolyticus; 2.0 mg/mL): +
- Growth on agar plate (Vibrio parahaemolyticus; 3.0 mg/mL): +
- Growth on agar plate (Vibrio parahaemolyticus; 4.0 mg/mL): −
- MIC (Vibrio parahaemolyticus; [2]): 4000 µg/mL (≈ 42.1 mM)
- activity (in words) (Yersinia enterocolitica): had an activity
- Growth on agar plate (Yersinia enterocolitica; 0.25 mg/mL): +
- Growth on agar plate (Yersinia enterocolitica; 0.5 mg/mL): +
- Growth on agar plate (Yersinia enterocolitica; 1.0 mg/mL): +
- Growth on agar plate (Yersinia enterocolitica; 2.0 mg/mL): +
- Growth on agar plate (Yersinia enterocolitica; 3.0 mg/mL): +
- Growth on agar plate (Yersinia enterocolitica; 4.0 mg/mL): −
- MIC (Yersinia enterocolitica; [2]): 4000 µg/mL (≈ 42.1 mM)
